Consider three molecules from US20220362386A1, “LIQUID COMPOSITIONS COMPRISING A LEVODOPA AMINO ACID CONJUGATE AND USES THEREOF” (NeuroDerm, Ltd., priority 2019, published 2022).

Structures are written as SMILES. Structures can show the parent of a compound that is named as a salt. Where two headings read alike, the source gives them in different places. Non-standard residues stand in square brackets, D forms with d. Residues, ends and D or L forms follow the SMILES beside them. Dopa = N[C@@H](Cc1ccc(O)c(O)c1)C(=O)O

The term half-life denotes the time needed for the level to fall by half in the phase considered. As a reminder, the microsomal CLint is the capacity of the preparation to metabolise the compound, expressed as a volume cleared per time. In general, Papp B→A refers to the apparent permeability from the basolateral to the apical side of a cell layer. By thermodynamic solubility is commonly meant solubility found after equilibrating the solid with the medium.

One series concerns P-gp. The series can be described thus: In-vitro absorption, Caco-2 A-B permeability. It counts as in vitro ADME, human. The settings on record: human, Caco-2, pH 7.4, with verapamil 100 μM on both the A and B sides, Caco-2 A-B, in the presence of verapamil. The method, then: (§1) Conditions may be adjusted when necessary.
(§2) D denotes donor and R is receiver. […] V is the volume of the donor or receiver.
(§3) The test was performed with and without verapamil, which is a permeation inhibitor, and the results are presented in Tables 22 (without verapamil) and 34 (with verapamil).
On the technique in general: Caco-2 monolayers are a common model of the intestinal barrier.

Series [1] can be described thus: In-vitro absorption, Caco-2 A-B permeability. It counts as in vitro ADME, human. Particulars: human, Caco-2, pH 7.4, Caco-2 A-B, without verapamil; for Papp A→B at 60 min, 10 μM: 1.0E−05M. The method, then: as §1, §2, §3
A short description of series [2]: In-vitro metabolism of LDAA compounds using liver microsomes. It is filed as in vitro ADME, human. Particulars: for half-life at 0.1 μM: pH 7.4, 1.0E−07M, 0.1 mg/mL microsomal protein. The procedure: The stability of test compounds in pooled human liver microsomes was determined on 96-well plates, wherein the test compounds were quantified at five time points by HPLC-MS/MS analysis. The assay matrix included mixed gender and a pool of 50 human liver microsomes, wherein the final microsomal protein concentration was 0.1 mg/mL. The test concentration was 0.1 μM with 0.01% DMSO, 0.25% acetonitrile and 0.25% methanol.
Each test compound was pre-incubated for five minutes with pooled liver microsomes in phosphate buffer (pH 7.4) in a 37° C. shaking water-bath. The reaction was initiated by adding a nicotinamide adenine dinucleotide phosphate (NADPH)-generating system and incubating for 0, 15, 30, 45, and 60 min. The reaction was stopped by transferring the incubation mixture to acetonitrile/methanol. Samples were then mixed and centrifuged, wherein the supernatants were used for HPLC-MS/MS analysis.
In each assay the four reference compounds propranolol, imipramine, verapamil and terfenadine were tested, wherein the propranolol and the imipramine are known to be relatively stable, while the verapamil and the terfenadine are known to be readily metabolized in human liver microsomes.
All samples were analyzed by HPLC-MS/MS using selected reaction monitoring. The HPLC system consisted of a binary LC pump with autosampler, a C-18 column, and a gradient. The conditions were adjusted when necessary.
Peak areas corresponding to the test compound were recorded. The amount of each compound remaining was calculated by comparing the peak area at each time point to time zero. The half-life is calculated from the slope of the initial linear range of the logarithmic curve of compound remaining (%) vs. time, assuming first order kinetics. In addition, the intrinsic clearance (Clint) was calculated from the half-life using the following equation:
Clint(μL/min/mg protein)=0.693/(t1/2×protein concentration)
The results of the in-vitro human liver microsome metabolism tests of various LDAA compounds (10^−7M), in their TFA salt forms, are provided in FIG. 1 and in Table 17, which presents the % of the compound remaining at times 0, 15, 30, 45 and 60 minutes, two half-life measurements and the Clint, calculated as detailed above.
Background: Liver microsomes are a subcellular fraction often used to study metabolism.

A further series is described as follows: in vitro. Particulars: human. The procedure: Caco-2 cells are human intestinal epithelial cells derived from a colorectal adenocarcinoma.
The assays are performed in both the apical to basolateral (A-B) and the B-A direction. The test compound is prepared at 10 μM in HBSS-HEPES (pH 7.4) with a final DMSO concentration of 1%. The working solution is centrifuged, and the supernatant is added to the donor side. The assay plate is incubated at 37° C. with gentle shaking for 60 min or 40 min for the A-B or B-A assay, respectively. For Pgp substrate assessment, the assays are run with and without 100 μM verapamil on both the A and B sides. For BCRP substrate assessment, the assays are run with and without 10 μM Ko143 on both the A and B sides. For MRP2 substrate assessment, the assays are run with and without 100 μM MK571 on both the A and B sides. Samples are aliquoted from the donor side at time zero and the end point, and from the receiver side at the end point.
Propranolol (highly permeable), labetalol (moderately permeable), ranitidine (poorly permeable), and colchicine (P-glycoprotein substrate), estrone-3-sulfate (BCRP substrate), or CDCF (MRP2 substrate) are included in each assay.
Samples are analyzed by HPLC-MS/MS using selected reaction monitoring. The HPLC system consists of a binary LC pump with an autosampler, a C-18 column, and a gradient. Conditions may be adjusted when necessary.
Fluorescein permeability is assessed in the A-B direction at pH 7.4 on both sides after the permeability assay with the test compound. The cell monolayer with a fluorescein permeability of less than 1.5×10−6 cm/s is considered intact.
The apparent permeability coefficient (Papp) of the test compound and its recovery are calculated as follows: […]
A is the surface area of the cell monolayer (0.11 cm^2). C is concentration of the test compound, expressed as peak area. D denotes donor and R is receiver. 0, mid, and end denote time zero, mid-point, and end of the incubation. Δt is the incubation time. V is the volume of the donor or receiver.
The permeability capabilities of the several LDAA compounds, in their TFA salt form, were determined using the Caco-2 B-A method.

A short description of a further series: physchem. It is filed as physicochemical. The procedure: The volume of the solution in the bottle was adjusted to 5 ml, either by adding solvent, or be removing any residual solution, after which the bottle was tightly closed and left at 25° C. for stability observation. It is noted that throughout Example 4, the concentrations in the tables below were calculated taking into account the amount of solvent added or the solution removed, in which event, the calculations were performed regarding the 5 ml+(amount removed) as the volume of the solution. It is further noted that throughout this document, unless mentioned otherwise, the stability was measured using the manual visual inspection Bosch apparatus MIH DX, at a magnification of ×1.75.
The LD-Tyr free base, prepared according to Example 2, was added to a solvent, as detailed in Table 7 below, and neutralized by addition of NaOH. When maximum solubility was observed, the solution was filtered and then transferred to a bottle that was previously weighed and flushed with nitrogen. The volume of the solution in the bottle was adjusted to 5 ml, after which the bottle was tightly closed and left at 25° C. for stability observation.
When maximum solubility was observed, the solution was filtered and then transferred to a bottle that was previously weighed and flushed with nitrogen. The volume of the solution in the bottle was adjusted to 5 ml, after which the bottle was tightly closed and left at 25° C. for stability observation.
(§4) When maximum solubility was observed, the solution was filtered and then transferred to a bottle that was previously weighed and flushed with nitrogen. The volume of the solution in the bottle was adjusted to 5 ml, after which the bottle was tightly closed and stored at 25° C. for stability observation.
as §4
LD-Lys TFA salt, prepared according to Example 1, and which comprises two equivalents of TFA, was added to a solvent, as detailed in Table 11 below, and neutralized by addition of NaOH. When maximum solubility was observed, the solution was filtered and then transferred to a bottle that was previously weighed and flushed with nitrogen. The volume of the solution in the bottle was adjusted to 5 ml, after which the bottle was tightly closed and stored at 25° C. for stability observation.
As detailed above regarding other solutions, with the LD-Tyr free base when maximum solubility was observed, the solution was filtered and then transferred to a bottle that was previously weighed and flushed with nitrogen. The volume of the solution in the bottle was adjusted to 5 ml, after which the bottle was tightly closed and left at 25° C. for stability observation.
LD-Lys HCl salt, prepared according to Example 3, was added to a solvent, as detailed in Table 13 below, and neutralized by the addition of NaOH. When maximum solubility was observed, the solution was filtered and then transferred to a bottle that was previously weighed and flushed with nitrogen. The volume of the solution in the bottle was adjusted to 5 ml, after which the bottle was tightly closed and left at 25° C. for stability observation.

Where [3] appears, read: read-out: Percent Recovery Mean.
[4] abbreviates: incubation time 0 minutes, 1.0E−07M.
Setting [5] is: incubation time 15 minutes, 1.0E−07M.
Setting [6] is: incubation time 30 minutes, 1.0E−07M.
[7] abbreviates: incubation time 45 minutes, 1.0E−07M.
[8] abbreviates: incubation time 60 minutes, 1.0E−07M.
Setting [9] is: solvent 0.75% CD solution, pH 8.65.
The mark [10] stands for this setting: solvent 0.63% CD solution, pH 7.71.

With `N[C@@H](Cc1ccc(O)c(O)c1)C(=O)NCC(=O)O` [LD-Gly TFA salt, Levodopa Glycine TFA Salt], the recovery at 60 min, 10 μM in the series on P-gp (read-out: Percent Recovery 1st) is 60%; in the series with P-gp (read-out: Percent Recovery 2nd) it was 59%; in the series with P-gp (setting [3]), 59%; in series [1] (read-out: Percent Recovery 1st), 65%; in series [1] (read-out: Percent Recovery 2nd), 62%; in series [1] (setting [3]), 64%. Also, the figures for the Papp A→B at 60 min, 10 μM in series [1] (read-out: Permeability 1st) and in series [1] (read-out: Permeability 2nd) were 0.03 ×10⁻⁶ cm/s and 0.02 ×10⁻⁶ cm/s, respectively. For the same molecule, the half-life at 0.1 μM stood at 54.5 min in series [2] (both sexes, human, pooled human liver microsomes, read-out: Half-Life (minute) 1st); 54.1 min in series [2] (both sexes, human, pooled human liver microsomes, read-out: Half-Life (minute) 2nd); 54 min in series [2] (both sexes, human, pooled human liver microsomes, read-out: Half-Life (minute) Mean). Also, the intrinsic clearance (microsomal CLint) at 0.1 μM in series [2] (both sexes, human, pooled human liver microsomes, pH 7.4, calculated from the half-life, 1.0E−07M) was 128 µL/min/mg. For the same molecule, the “% Compound Remaining 1st” value is listed as 100% in series [2] (setting [4]); 103.7% in series [2] (setting [5]); 86.7% in series [2] (setting [6]); 57.5% in series [2] (setting [7]); 51.7% in series [2] (setting [8]). The “% Compound Remaining 2nd” value in series [2] (setting [4]) was found to be 100%; in series [2] (setting [5]), 108.1%; in series [2] (setting [6]), 77.9%; in series [2] (setting [7]), 56.4%; in series [2] (setting [8]), 52.9%. Moreover, the “% Compound Remaining Mean” value was found to be 100% in series [2] (setting [4]); 106% in series [2] (setting [5]); 82% in series [2] (setting [6]); 57% in series [2] (setting [7]); 52% in series [2] (setting [8]). The recovery at 40 min, 10 μM in “in vitro” (Caco-2, pH 7.4, Percent Recovery 1st) worked out at 93%; in the series “in vitro” (Caco-2, pH 7.4, Percent Recovery 2nd), 78%; in “in vitro” (Caco-2, pH 7.4, Percent Recovery Mean) it was 85%. The Papp B→A at 40 min, 10 μM in the series “in vitro” (Caco-2, pH 7.4, Permeability 1st) was 0.38 ×10⁻⁶ cm/s; in “in vitro” (Caco-2, pH 7.4, Permeability 2nd), 0.33 ×10⁻⁶ cm/s; in the series “in vitro” (Caco-2, pH 7.4, Permeability Mean), 0.4 ×10⁻⁶ cm/s.
With `N[C@@H](Cc1ccc(O)c(O)c1)C(=O)N[C@@H](Cc1ccc(O)cc1)C(=O)O` [LD-Tyr HCl salt] (H-[Dopa]-Tyr-OH), the Appearance entry in “physchem” (0.75% CD solution, pH 8.65, 297 mg/ml salt) is given as “clear”; in “physchem” (WFI, pH 8.46, 300 mg/ml salt), “clear”. Further, the “LD-Tyr HCl salt concentration” value in “physchem” (setting [9]) stood at 297 mg/mL; in “physchem” (solvent WFI, pH 8.46), 300 mg/mL. Besides, the “LD-Tyr free base Concentration” value was found to be 257 mg/mL in “physchem” (setting [9]) and 260 mg/mL in “physchem” (solvent WFI, pH 8.46).
Turning to `N=C(N)NCCC[C@H](NC(=O)[C@@H](N)Cc1ccc(O)c(O)c1)C(=O)O` [LD-Arg HCl salt], the Appearance entry in “physchem” (0.2% NaBis in WFI, pH 7.02, 550 mg/ml salt) is reported as “clear”; in the series “physchem” (0.63% CD solution, pH 7.71, 520 mg/ml salt), “clear”; in “physchem” (WFI, pH 7.3, 500 mg/ml salt), “clear”. The molecule further showed a thermodynamic solubility in “physchem” (25 °C, aqueous buffer, thermodynamic from solid, solvent 0.2% NaBis in WFI, pH 7.02) of 550 mg/mL. Further, the “LD-Arg free base Concentration” value amounted to 440 mg/mL in “physchem” (solvent 0.2% NaBis in WFI, pH 7.02); 420 mg/mL in the series “physchem” (setting [10]); 390 mg/mL in “physchem” (solvent WFI, pH 7.3). Further, the “LD-Arg HCl salt concentration” value in “physchem” (setting [10]) is 520 mg/mL; in the series “physchem” (solvent WFI, pH 7.3), 500 mg/mL.
